Residues, ends and D or L forms follow the SMILES beside them. *: point of attachment. AMC = Cc1cc(=O)oc2cc(N*)ccc12; Boc = CC(C)(C)OC(=O)*
Tests used:
[1] = test system: MRSA, MSSA, S. epidermidis and E. coli; test: Coumarin staphylocoagulase fluorescence assay, all four bacterial species; type: cell-based; conditions: 500 μM coumarin, FIG. 10
Method: (§1) As described for the LGX system, clinical isolates of Methicillin Resistant Staphylococcus Aureus (MRSA), Methicillin Sensitive Staphylococcus Aureus (MSSA), Staphylococcus Epidermidis and Eschericia coli were cultured on nutrient agar prior to being grown overnight in nutrient broth under shaking conditions at 37° C. To determine the effects of varying bacterial concentrations with respect to bacterial strains and N-t-BOC-val-pro-arg-7-amido-4-methylcoumarin concentrations on staphylocoagulase activity, a direct comparison between the LGX system and the existing use of N-t-BOC-val-pro-arg-7-amido-4-methylcoumarin as a means of detecting staphylocoagulase was necessary (Ford et al, 1999).
(§2) 100 μM and 500 μM solutions of coumarin solution were prepared in 1×PBS with the addition of 0.05 M Tris Buffer and 0.1 M NaCl to maintain a pH of 8.5 using N-t-BOC-val-pro-arg-7-amido-4-methylcoumarin dissolved in MeOH. Furthermore, 100 μM and 500 μM of human prothrombin was added to the solution. 90 μl of […] of N-t-BOC-val-pro-arg-7-amido-4-methylcoumarin solution was added to varying concentrations of bacteria (10^6, 10^5, 10^4, 10^3, 10^2 and 10^0, respectively) in a microliter plate and staphylocoagulase activity determined by fluorescence spectrophotometry (Excitation of 355 nm, Emmission of 460 nm) at 15 minute intervals over a 6 hour time period. […]

MRSA and MSSA [2] = conditions: post-culture (10^6-10^8 bacteria); cited from earlier work
MSSA = test: Coumarin staphylocoagulase fluorescence assay, MSSA; type: cell-based, Staphylococcus aureus; conditions: 500 μM coumarin; MSSA 10^6; FIG. 10
Method: as §1, §2

[3] = test system: MRSA, MSSA, S. epidermidis and E. coli; test: Coumarin assay, absorbance at 385 nm, all bacterial types; type: cell-based; conditions: 100 μM coumarin, FIG. 15
Method: To compare the efficacy of this staphylocoagulase assay with current, well established “gold standard” methods of coagulase detection such as a coumarin assay, coagulase test and latex agglutination test, bacterial isolates were prepared in suspension as above and clinical isolates of each respective strain was cultured overnight on nutrient agar. 90 μl of bacterial suspension was added to a solution consisting of 100 μM solutions of N-t-BOC-val-pro-arg-7-amido-4-methylcoumarin prepared in 1×PBS with the addition of 0.05 M Tris Buffer and 0.1 M NaCl to maintain a pH of 8.5. Staphylocoagulase activity was determined by measuring the absorbance at 385 nm at 15 minute intervals over a 6 hour time period. It should be noted that a concentration of 795 μM of the coumarin dye is usually required post-culture (10^6-10^8 bacteria) in order to observe a significant chromogenic response.

MRSA and MSSA [4] = test: Coumarin staphylocoagulase assay, MRSA and MSSA; type: cell-based, Staphylococcus aureus; conditions: 100 μM coumarin; MRSA and MSSA 10^6 and 10^5; FIG. 11
Method: as §1, §2

bacterial viability = test: Effect of methanol on bacterial viability (colony count); type: cell-based; conditions: 2 hours incubation, all bacteria concentrations (10^2-10^6), plated on nutrient agar overnight
Method: Tests were also run to validate that the methanol had no adverse effects on the growth of a number of bacterial strains up to a ˜5% methanol solution. Varying concentrations of methanol (0.25%, 0.5%, 1%, 2.5 5, 4% and 5%) were incubated with each bacterial species also at varying concentrations (10^2-10^6) for 2 hours prior to plating on nutrient agar to assess the effects of the solvent on bacterial viability.

Cc1cc(=O)oc2cc(NC(=O)[C@H](CCCNC(=N)N)NC(=O)[C@@H]3CCCN3C(=O)[C@@H](NC(=O)OC(C)(C)C)C(C)C)ccc12 [N-t-BOC-val-pro-arg-7-amido-4-methylcoumarin] (Boc-Val-Pro-Arg-{AMC})
discrimination between bacterial species by fluorescence ([1]; all bacterial species 10^6): little discrimination between the fluorescence of all samples
fluorescence over the 6 hour time period ([1]; high and low concentrations of MRSA, MSSA, S. epidermidis and E. coli): no increase in fluorescence was observed
concentration usually required to observe a significant chromogenic response (MRSA and MSSA [2]): 795 µM
fluorescence (MSSA): a slight increase was observed
absorbance over the 6 hour time period ([3]; 10^5, 10^4, 10^3 and 10^2): no increase or variance between bacterial strains
absorbance over the 6 hour time period ([3]; 10^6 of all bacterial types): little increase over the 6 hour time period
discrimination between bacterial samples by fluorescence (MRSA and MSSA [4]): no discrimination between bacterial samples

CO [methanol]
methanol concentration up to which bacterial viability was not compromised (bacterial viability): up to 4%

Source: US10400263B2, “Tripeptide rhodamine compound” (Kingston Uninversity Higher Education Corporation, priority 2012, dated 2019)
